Experimental data taken from patent US20250195536A1, “BICYCLOOCTANE KRAS INHIBITORS” (Incyte Corporation, priority 2023, published 2025).

Tests used:
[1] = molecular target: KRAS G12V (Homo sapiens, UniProt P01116, G12V); experiment: GDP-GTP exchange assay (KRAS G12V); format: biochemical; settings: bodipy-GDP/GppNHp exchange with SOS1; 3 h incubation after GppNHp-SOS1;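 further: one dagger IC50 up to 100 nM and two daggers above 100 nM up to 1 μM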
Summary of the method: (§1)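 IC50 came from a four-parameter fit of fluorescence loss (485/520 nm) as SOS1 (150 nM) swapped bodipy-GDP for GppNHp (500 μM) on 2.5 nM KRAS, final concentrations. Compounds were pre-incubated 4 h at r.t. (pH 7.5 Hepes, 10 mM MgCl2); exchange ran 2 h (G12D) or 3 h (G12V).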

[2] = molecular target: KRAS G12D (Homo sapiens, UniProt P01116, G12D); experiment: GDP-GTP exchange assay (KRAS G12D); format: biochemical; settings: bodipy-GDP/GppNHp exchange with SOS1; 4 h pre-incubation, 2 h reaction;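 further: one dagger IC50 up to 100 nM and two daggers above 100 nM up to 1 μM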
Sequence of KRAS G12D (P01116 1-188 isoform P01116-2 G12D): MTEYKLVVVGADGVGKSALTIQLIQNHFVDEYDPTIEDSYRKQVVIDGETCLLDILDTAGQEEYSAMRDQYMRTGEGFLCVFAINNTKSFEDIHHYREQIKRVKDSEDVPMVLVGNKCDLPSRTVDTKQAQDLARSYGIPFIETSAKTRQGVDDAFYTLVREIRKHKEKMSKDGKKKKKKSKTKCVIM
Summary of the method: as §1

[3] = Caco2 assay (permeability, Papp A-B); format: in vitro ADME; settings: human, Caco-2, absorptive direction (A-B), 50 μM test compound, 4% BSA in receiver
Summary of the method: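 Absorptive (A-B) Papp: 50 μM test compound in HBSS added to apical side of 22-25-day Caco-2 monolayers (TEER 300 Ω·cm^2), receiver buffer containing 4% BSA. After 120 min at 37 °C, 5% CO2, both sides analysed by LCMS; Papp calculated from flux rate normalized to area and donor amount.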

Sequence of KRAS G12V (P01116 1-188 isoform P01116-2 G12V): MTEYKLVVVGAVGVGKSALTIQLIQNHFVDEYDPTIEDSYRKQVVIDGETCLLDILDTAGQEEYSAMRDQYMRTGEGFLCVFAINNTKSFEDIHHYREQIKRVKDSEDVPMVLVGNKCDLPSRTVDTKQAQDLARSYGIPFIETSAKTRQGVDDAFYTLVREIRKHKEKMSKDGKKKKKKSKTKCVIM

| SMILES | G12V_exchange (KRAS_G12V exchange assay IC50) [1] | G12D_exchange (KRAS_G12D exchange assay IC50) [2] | Papp A→B at 120 min, 50 μM [3] |
| --- | --- | --- | --- |
| Cc1ncnc(N2C[C@@H]3C[C@H](C2)N(C(=O)C2CC2)[C@H]3c2cc3c(C)nc4c(F)c(-c5cccc(Cl)c5Cl)c(CCC#N)cc4c3n2[C@H]2[C@H]3CN[C@@H]2C3)c1F (atropisomer, axis not shown; (Ra)) [Example 31, 3-((Ra)-1-((1R,4R,5S)-2-Azabicyclo[2.1.1]hexan-5-yl)-2-((1 S,5R,7R)-6-(cyclopropanecarbonyl)-3-(5-fluoro-6-methylpyrimidin-4-yl)-3,6-diazabicyclo[3.2.1]octan-7-yl)-7-(2,3-dichlorophenyl)-6-fluoro-4-methyl-1H-pyrrolo[3,2-c]quinolin-8-yl)propanenitrile] | † | † | ≤ 0.5 ×10⁻⁶ cm/s |
| Cc1nc2c(F)c(-c3cccc(Cl)c3Cl)c(CCC#N)cc2c2c1cc([C@H]1[C@H]3C[C@H](CN(c4cnn(C(F)(F)F)c4)C3)N1C(=O)C1CC1)n2[C@H]1[C@H]2CN[C@@H]1C2 (atropisomer, axis not shown; (Ra)) [Example 27, 3-((Ra)-1-((1R,4R,5S)-2-azabicyclo[2.1.1]hexan-5-yl)-2-((1S,5R,7R)-6-(cyclopropanecarbonyl)-3-(1-(trifluoromethyl)-1H-pyrazol-4-yl)-3,6-diazabicyclo[3.2.1]octan-7-yl)-7-(2,3-dichlorophenyl)-6-fluoro-4-methyl-1H-pyrrolo[3,2-c]quinolin-8-yl)propanenitrile] | † | † | ≤ 0.5 ×10⁻⁶ cm/s |
| Cc1nc2c(F)c(-c3cccc(Cl)c3Cl)c(CCC#N)cc2c2c1cc([C@H]1[C@H]3C[C@H](CN(c4cc(C(F)(F)F)ccn4)C3)N1C(=O)C1CC1)n2[C@H]1[C@H]2CN[C@@H]1C2 (atropisomer, axis not shown; (Ra)) [Example 39, 3-((Ra)-1-((1R,4R,5S)-2-azabicyclo[2.1.1]hexan-5-yl)-2-((1S,5R,7R)-6-(cyclopropanecarbonyl)-3-(4-(trifluoromethyl)pyridin-2-yl)-3,6-diazabicyclo[3.2.1]octan-7-yl)-7-(2,3-dichlorophenyl)-6-fluoro-4-methyl-1H-pyrrolo[3,2-c]quinolin-8-yl)propanenitrile] | † | † | ≤ 0.5 ×10⁻⁶ cm/s |
| COc1ccnc(N2C[C@@H]3C[C@H](C2)N(C(=O)C2CC2)[C@H]3c2cc3c(C)nc4c(F)c(-c5cccc(Cl)c5Cl)c(CCC#N)cc4c3n2[C@H]2[C@H]3CN[C@@H]2C3)n1 (atropisomer, axis not shown; (Ra)) [Example 42, 3-((Ra)-1-((1R,4R,5S)-2-azabicyclo[2.1.1]hexan-5-yl)-2-((1S,5R,7R)-6-(cyclopropanecarbonyl)-3-(4-methoxypyrimidin-2-yl)-3,6-diazabicyclo[3.2.1]octan-7-yl)-7-(2,3-dichlorophenyl)-6-fluoro-4-methyl-1H-pyrrolo[3,2-c]quinolin-8-yl)propanenitrile] | † | † | ≤ 0.5 ×10⁻⁶ cm/s |
| COc1cccnc1N1C[C@@H]2C[C@H](C1)N(C(=O)C1CC1)[C@H]2c1cc2c(C)nc3c(F)c(-c4cccc(Cl)c4Cl)c(CCC#N)cc3c2n1[C@H]1[C@H]2CN[C@@H]1C2 (atropisomer, axis not shown; (Ra)) [Example 49, 3-((Ra)-1-((1R,4R,5S)-2-azabicyclo[2.1.1]hexan-5-yl)-2-((1S,5R,7R)-6-(cyclopropanecarbonyl)-3-(3-methoxypyridin-2-yl)-3,6-diazabicyclo[3.2.1]octan-7-yl)-7-(2,3-dichlorophenyl)-6-fluoro-4-methyl-1H-pyrrolo[3,2-c]quinolin-8-yl)propanenitrile] | † | † | ≤ 0.5 ×10⁻⁶ cm/s |
| Cc1nc2c(F)c(-c3cccc(Cl)c3Cl)c(CCC#N)cc2c2c1cc([C@H]1[C@H]3C[C@H](CN(c4ccccn4)C3)N1C(=O)C1CC1)n2[C@H]1[C@H]2CN[C@@H]1C2 (atropisomer, axis not shown; (Ra)) [Example 36, 3-((Ra)-1-((1R,4R,5S)-2-azabicyclo[2.1.1]hexan-5-yl)-2-((1S,5R,7R)-6-(cyclopropanecarbonyl)-3-(pyridin-2-yl)-3,6-diazabicyclo[3.2.1]octan-7-yl)-7-(2,3-dichlorophenyl)-6-fluoro-4-methyl-1H-pyrrolo[3,2-c]quinolin-8-yl)propanenitrile] | † | † | ≤ 0.5 ×10⁻⁶ cm/s |
| Cc1cc(N2C[C@@H]3C[C@H](C2)N(C(=O)C2CC2)[C@H]3c2cc3c(C)nc4c(F)c(-c5cccc(Cl)c5Cl)c(CCC#N)cc4c3n2[C@H]2[C@H]3CN[C@@H]2C3)cc(F)n1 (atropisomer, axis not shown; (Ra)) [Example 79, 3-((Ra)-1-((1R,4R,5S)-2-azabicyclo[2.1.1]hexan-5-yl)-2-((1S,5R,7R)-6-(cyclopropanecarbonyl)-3-(2-fluoro-6-methylpyridin-4-yl)-3,6-diazabicyclo[3.2.1]octan-7-yl)-7-(2,3-dichlorophenyl)-6-fluoro-4-methyl-1H-pyrrolo[3,2-c]quinolin-8-yl)propanenitrile] | † | † | ≤ 0.5 ×10⁻⁶ cm/s |

The remaining lines, values ahead:

| G12V_exchange (KRAS_G12V exchange assay IC50) [1] | G12D_exchange (KRAS_G12D exchange assay IC50) [2] | Papp A→B at 120 min, 50 μM [3] | SMILES |
| --- | --- | --- | --- |
| † | † | ≤ 0.5 ×10⁻⁶ cm/s | CCOc1cc(N2C[C@@H]3C[C@H](C2)N(C(=O)C2CC2)[C@H]3c2cc3c(C)nc4c(F)c(-c5cccc(Cl)c5Cl)c(CCC#N)cc4c3n2[C@H]2[C@H]3CN[C@@H]2C3)ccn1 (atropisomer, axis not shown; (Ra)) [Example 81, 3-((Ra)-1-((1R,4R,5S)-2-azabicyclo[2.1.1]hexan-5-yl)-2-((1S,5R,7R)-6-(cyclopropanecarbonyl)-3-(2-ethoxypyridin-4-yl)-3,6-diazabicyclo[3.2.1]octan-7-yl)-7-(2,3-dichlorophenyl)-6-fluoro-4-methyl-1H-pyrrolo[3,2-c]quinolin-8-yl)propanenitrile] |
| † | † | ≤ 0.5 ×10⁻⁶ cm/s | Cc1nc2c(F)c(-c3cccc(Cl)c3Cl)c(CCC#N)cc2c2c1cc([C@H]1[C@H]3C[C@H](CN(c4nc(C(F)(F)F)cs4)C3)N1C(=O)C1CC1)n2[C@H]1[C@H]2CN[C@@H]1C2 (atropisomer, axis not shown; (Ra)) [Example 94, 3-((Ra)-1-((1R,4R,5S)-2-azabicyclo[2.1.1]hexan-5-yl)-2-((1S,5R,7R)-6-(cyclopropanecarbonyl)-3-(4-(trifluoromethyl)thiazol-2-yl)-3,6-diazabicyclo[3.2.1]octan-7-yl)-7-(2,3-dichlorophenyl)-6-fluoro-4-methyl-1H-pyrrolo[3,2-c]quinolin-8-yl)propanenitrile] |
| † | † | ≤ 0.5 ×10⁻⁶ cm/s | Cc1nc2c(F)c(-c3cccc(Cl)c3Cl)c(CCC#N)cc2c2c1cc([C@H]1[C@H]3C[C@H](CN(c4cccc(C(F)F)n4)C3)N1C(=O)C1CC1)n2[C@H]1[C@H]2CN[C@@H]1C2 (atropisomer, axis not shown; (Ra)) [Example 88, 3-((Ra)-1-((1R,4R,5S)-2-azabicyclo[2.1.1]hexan-5-yl)-2-((1S,5R,7R)-6-(cyclopropanecarbonyl)-3-(6-(difluoromethyl)pyridin-2-yl)-3,6-diazabicyclo[3.2.1]octan-7-yl)-7-(2,3-dichlorophenyl)-6-fluoro-4-methyl-1H-pyrrolo[3,2-c]quinolin-8-yl)propanenitrile] |
